Several values for one entry are separate records, joined by “and”; a condition that tells them apart may be missing. Equal values may be shown once.
Legend:
Experiment in all cases: biochemical
[1] = molecular target: BMPR1A (Homo sapiens, UniProt P36894)
[2] = molecular target: STK17B (Homo sapiens, UniProt O94768)
[3] = molecular target: MAP3K5 (Homo sapiens, UniProt Q99683)
[4] = molecular target: T1, IKBKE (Homo sapiens, UniProt Q14164)
T1 sequence (Q14164 1-716): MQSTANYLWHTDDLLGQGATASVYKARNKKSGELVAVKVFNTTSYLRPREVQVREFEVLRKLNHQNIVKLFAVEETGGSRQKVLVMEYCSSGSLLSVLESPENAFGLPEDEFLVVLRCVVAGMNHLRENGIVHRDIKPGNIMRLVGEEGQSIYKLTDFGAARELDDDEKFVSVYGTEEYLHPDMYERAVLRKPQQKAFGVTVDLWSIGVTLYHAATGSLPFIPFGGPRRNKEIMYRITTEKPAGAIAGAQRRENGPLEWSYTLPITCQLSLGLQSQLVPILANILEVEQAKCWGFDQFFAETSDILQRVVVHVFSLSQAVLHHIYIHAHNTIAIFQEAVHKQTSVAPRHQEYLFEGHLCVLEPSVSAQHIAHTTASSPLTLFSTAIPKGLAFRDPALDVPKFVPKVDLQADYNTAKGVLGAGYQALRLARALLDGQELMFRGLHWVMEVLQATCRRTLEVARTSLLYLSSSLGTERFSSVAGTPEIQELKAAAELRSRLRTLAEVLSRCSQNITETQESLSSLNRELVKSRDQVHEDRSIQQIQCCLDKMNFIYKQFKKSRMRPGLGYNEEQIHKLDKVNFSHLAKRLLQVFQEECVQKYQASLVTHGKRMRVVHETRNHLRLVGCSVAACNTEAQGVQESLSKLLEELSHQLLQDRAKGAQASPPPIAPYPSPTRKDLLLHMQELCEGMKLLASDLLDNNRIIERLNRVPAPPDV

[5] = molecular target: ACVR2B (Homo sapiens, UniProt Q13705)
[6] = molecular target: CAMK2A (Homo sapiens, UniProt Q9UQM7)
[7] = molecular target: T2, BMPR2 (Homo sapiens, UniProt Q13873)
T2 sequence (Q13873 1-1038): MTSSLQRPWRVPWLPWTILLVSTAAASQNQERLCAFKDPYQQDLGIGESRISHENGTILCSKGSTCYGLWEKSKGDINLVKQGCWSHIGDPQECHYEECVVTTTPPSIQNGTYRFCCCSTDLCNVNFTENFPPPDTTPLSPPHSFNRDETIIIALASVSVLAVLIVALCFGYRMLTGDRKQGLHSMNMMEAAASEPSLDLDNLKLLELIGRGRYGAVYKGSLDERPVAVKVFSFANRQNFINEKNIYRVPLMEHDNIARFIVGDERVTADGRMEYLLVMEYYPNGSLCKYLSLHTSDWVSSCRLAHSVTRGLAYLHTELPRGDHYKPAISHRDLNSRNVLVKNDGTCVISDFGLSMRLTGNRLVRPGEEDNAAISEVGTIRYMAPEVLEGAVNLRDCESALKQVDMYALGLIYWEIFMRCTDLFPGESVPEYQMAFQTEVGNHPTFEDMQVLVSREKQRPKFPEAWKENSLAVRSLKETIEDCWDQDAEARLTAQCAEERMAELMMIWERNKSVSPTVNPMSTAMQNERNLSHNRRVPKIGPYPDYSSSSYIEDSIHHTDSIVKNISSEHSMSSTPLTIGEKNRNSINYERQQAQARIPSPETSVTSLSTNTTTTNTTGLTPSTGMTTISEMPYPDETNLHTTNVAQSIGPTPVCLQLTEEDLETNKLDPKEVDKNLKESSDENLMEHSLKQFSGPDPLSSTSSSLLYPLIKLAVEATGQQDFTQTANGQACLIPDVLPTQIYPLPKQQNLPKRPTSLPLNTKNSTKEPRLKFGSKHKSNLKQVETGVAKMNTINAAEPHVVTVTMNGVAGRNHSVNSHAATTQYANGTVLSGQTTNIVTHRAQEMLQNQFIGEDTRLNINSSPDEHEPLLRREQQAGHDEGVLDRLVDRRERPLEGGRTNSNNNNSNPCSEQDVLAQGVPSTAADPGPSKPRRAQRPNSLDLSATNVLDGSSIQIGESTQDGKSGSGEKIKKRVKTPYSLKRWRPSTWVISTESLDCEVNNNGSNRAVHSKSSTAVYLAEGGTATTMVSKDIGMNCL

[8] = molecular target: T3, NEK3 (Homo sapiens, UniProt P51956)
T3 sequence (P51956 1-506): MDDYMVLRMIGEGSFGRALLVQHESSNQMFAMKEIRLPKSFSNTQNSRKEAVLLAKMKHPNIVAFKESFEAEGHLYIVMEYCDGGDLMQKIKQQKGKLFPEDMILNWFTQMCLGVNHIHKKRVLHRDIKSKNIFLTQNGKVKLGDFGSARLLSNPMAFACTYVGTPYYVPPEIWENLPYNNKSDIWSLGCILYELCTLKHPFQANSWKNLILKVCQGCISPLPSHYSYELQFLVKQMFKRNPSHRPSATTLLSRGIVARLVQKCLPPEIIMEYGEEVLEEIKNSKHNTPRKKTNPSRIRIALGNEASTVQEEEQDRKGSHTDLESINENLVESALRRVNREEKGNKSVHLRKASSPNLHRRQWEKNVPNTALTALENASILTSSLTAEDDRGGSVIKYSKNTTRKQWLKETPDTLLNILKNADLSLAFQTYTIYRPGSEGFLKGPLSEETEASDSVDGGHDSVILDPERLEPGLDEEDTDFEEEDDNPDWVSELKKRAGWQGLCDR

[9] = molecular target: JAK2 (Homo sapiens, UniProt O60674)
Sequence of JAK2 (O60674 whole entry): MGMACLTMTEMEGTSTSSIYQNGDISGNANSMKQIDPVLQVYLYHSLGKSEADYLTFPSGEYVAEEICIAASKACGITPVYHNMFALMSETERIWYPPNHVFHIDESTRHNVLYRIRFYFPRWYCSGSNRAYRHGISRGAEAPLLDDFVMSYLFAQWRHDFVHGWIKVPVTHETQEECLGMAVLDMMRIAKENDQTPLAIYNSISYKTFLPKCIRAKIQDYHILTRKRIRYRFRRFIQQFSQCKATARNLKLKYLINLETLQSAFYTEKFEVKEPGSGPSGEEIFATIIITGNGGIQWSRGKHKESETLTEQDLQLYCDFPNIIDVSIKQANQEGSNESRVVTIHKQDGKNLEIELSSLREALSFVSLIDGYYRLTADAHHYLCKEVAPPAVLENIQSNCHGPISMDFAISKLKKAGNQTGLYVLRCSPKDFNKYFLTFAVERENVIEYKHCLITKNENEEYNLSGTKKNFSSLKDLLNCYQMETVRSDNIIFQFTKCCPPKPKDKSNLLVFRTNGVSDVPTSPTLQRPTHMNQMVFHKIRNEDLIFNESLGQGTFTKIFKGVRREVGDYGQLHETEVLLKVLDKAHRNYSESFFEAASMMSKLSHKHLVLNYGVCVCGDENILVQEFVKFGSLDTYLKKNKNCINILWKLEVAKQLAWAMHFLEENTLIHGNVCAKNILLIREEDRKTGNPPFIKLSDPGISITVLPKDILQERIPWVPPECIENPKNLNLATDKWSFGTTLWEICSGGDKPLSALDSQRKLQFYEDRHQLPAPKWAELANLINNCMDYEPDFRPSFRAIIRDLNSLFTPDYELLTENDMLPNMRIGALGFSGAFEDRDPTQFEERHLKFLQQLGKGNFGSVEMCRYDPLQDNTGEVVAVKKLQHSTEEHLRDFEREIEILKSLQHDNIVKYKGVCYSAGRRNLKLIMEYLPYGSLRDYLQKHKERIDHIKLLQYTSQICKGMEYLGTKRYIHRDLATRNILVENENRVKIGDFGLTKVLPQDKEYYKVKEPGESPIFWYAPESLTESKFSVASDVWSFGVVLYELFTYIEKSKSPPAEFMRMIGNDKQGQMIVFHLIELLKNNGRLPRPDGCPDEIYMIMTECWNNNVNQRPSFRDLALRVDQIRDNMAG

Sequence of ACVR2B (Q13705 whole entry): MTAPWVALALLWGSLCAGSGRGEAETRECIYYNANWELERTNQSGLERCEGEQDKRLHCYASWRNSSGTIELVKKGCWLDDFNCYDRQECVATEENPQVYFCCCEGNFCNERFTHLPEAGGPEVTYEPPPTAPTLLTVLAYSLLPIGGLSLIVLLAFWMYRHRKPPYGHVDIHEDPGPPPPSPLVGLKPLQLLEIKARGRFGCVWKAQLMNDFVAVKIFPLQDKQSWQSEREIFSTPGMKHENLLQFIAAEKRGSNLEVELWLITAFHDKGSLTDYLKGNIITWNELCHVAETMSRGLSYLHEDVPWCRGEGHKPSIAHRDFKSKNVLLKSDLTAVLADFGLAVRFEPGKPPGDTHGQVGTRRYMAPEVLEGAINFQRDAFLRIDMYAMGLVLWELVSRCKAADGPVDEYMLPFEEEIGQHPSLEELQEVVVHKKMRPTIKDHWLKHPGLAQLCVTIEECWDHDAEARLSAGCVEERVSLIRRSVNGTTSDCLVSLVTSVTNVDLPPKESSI
Sequence of MAP3K5 (Q99683 whole entry): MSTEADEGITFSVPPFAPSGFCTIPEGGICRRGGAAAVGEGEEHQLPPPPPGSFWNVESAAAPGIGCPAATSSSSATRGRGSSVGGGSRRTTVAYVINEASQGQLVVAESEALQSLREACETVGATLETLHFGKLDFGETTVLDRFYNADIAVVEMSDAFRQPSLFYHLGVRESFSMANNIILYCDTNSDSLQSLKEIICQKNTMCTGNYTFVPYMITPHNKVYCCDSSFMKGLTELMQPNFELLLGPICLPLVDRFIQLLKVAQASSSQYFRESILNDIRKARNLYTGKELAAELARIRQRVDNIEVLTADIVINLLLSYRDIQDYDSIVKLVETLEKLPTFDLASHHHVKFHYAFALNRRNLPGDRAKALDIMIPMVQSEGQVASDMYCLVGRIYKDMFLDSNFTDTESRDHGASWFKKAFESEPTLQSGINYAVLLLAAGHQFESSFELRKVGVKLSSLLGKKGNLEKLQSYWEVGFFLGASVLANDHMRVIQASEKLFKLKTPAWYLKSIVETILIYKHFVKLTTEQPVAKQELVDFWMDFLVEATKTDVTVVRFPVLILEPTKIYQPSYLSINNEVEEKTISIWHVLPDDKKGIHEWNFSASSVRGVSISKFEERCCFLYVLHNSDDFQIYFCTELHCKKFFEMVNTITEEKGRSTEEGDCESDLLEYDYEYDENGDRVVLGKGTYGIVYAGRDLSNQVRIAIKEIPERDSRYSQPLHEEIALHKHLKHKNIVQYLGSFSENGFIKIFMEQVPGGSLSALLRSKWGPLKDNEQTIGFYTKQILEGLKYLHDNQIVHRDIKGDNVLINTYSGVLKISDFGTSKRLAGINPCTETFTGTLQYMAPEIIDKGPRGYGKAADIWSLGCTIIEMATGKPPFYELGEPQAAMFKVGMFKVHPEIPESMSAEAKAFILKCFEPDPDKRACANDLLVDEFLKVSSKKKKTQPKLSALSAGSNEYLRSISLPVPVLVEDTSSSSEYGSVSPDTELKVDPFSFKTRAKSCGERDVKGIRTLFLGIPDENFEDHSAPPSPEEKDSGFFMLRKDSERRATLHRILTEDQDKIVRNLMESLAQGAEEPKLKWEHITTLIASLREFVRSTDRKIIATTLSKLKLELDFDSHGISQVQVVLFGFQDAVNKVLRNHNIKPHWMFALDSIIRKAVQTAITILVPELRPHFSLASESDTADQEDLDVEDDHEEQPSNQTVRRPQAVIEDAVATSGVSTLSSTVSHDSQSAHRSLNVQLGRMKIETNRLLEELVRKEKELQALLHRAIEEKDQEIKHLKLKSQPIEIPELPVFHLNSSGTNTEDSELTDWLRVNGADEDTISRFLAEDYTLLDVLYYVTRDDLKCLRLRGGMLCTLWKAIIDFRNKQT
Sequence of CAMK2A (Q9UQM7 whole entry): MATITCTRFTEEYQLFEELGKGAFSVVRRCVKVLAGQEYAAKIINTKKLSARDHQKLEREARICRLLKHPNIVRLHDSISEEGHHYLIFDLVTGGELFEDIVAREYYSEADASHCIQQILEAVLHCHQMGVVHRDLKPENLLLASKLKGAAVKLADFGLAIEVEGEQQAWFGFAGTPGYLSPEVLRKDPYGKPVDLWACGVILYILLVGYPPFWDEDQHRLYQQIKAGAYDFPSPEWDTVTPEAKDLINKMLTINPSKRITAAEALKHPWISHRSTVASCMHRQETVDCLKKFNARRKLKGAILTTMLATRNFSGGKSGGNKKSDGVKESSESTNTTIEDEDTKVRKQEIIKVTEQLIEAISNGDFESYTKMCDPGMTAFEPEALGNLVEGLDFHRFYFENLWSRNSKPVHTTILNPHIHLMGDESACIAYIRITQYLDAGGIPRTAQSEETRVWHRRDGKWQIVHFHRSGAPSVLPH
Sequence of BMPR1A (P36894 whole entry): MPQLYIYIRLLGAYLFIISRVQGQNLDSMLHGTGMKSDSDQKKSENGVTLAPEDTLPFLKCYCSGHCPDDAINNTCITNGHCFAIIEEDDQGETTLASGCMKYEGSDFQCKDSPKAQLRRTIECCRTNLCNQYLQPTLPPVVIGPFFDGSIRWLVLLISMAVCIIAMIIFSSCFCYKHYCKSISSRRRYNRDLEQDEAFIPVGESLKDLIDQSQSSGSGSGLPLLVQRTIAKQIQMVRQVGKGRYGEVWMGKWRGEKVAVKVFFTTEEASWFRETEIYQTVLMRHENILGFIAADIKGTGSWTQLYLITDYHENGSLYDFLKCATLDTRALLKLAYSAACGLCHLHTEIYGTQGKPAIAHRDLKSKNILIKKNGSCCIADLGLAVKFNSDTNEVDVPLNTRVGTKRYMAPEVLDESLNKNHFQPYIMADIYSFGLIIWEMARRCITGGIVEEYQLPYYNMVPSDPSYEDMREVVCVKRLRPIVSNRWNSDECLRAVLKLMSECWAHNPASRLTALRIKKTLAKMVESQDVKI
Sequence of STK17B (O94768 whole entry): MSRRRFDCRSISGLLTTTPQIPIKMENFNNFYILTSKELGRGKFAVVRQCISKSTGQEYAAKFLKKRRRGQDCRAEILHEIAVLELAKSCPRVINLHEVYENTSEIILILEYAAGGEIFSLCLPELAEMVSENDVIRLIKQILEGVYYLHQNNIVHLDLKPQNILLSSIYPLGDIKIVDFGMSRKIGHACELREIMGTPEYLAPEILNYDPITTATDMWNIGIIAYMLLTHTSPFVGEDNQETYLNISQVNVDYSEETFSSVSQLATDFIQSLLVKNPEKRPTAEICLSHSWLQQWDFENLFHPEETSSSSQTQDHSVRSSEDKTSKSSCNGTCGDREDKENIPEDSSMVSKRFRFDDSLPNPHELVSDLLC

| SMILES | IC50 [1] | IC50 [2] | IC50 [3] | IC50 [4] | IC50 [5] | IC50 [6] | IC50 [7] | IC50 [8] | IC50 [9] |
| --- | --- | --- | --- | --- | --- | --- | --- | --- | --- |
| CN(C)CC(O)COc1ccc(Nc2ncc([N+](=O)[O-])c(Nc3ccccc3O)n2)cc1.O=C(O)C(F)(F)F (stereo not drawn) [TCMDC-141399] | > 20 µM | > 20 µM | > 20 µM | > 20 µM | > 20 µM | > 20 µM | > 20 µM |  |  |
| Cl.NCC1(c2nc(-c3ccc(Cl)c(O)c3)c(-c3ccncc3)[nH]2)CCCCC1 [TCMDC-141154] | > 20 µM | > 20 µM | > 20 µM |  |  | > 20 µM |  | > 20 µM | > 20 µM |
| CN1CCN(c2ccc(Nc3ncc(C#N)c(Nc4ccccc4C(N)=O)n3)cc2)CC1.Cl [TCMDC-134116] |  |  |  | 1.8 µM | > 20 µM |  | 4.9 µM and 6.7 µM | 1.1 µM | 0.51 µM and 0.33 µM |
